Data from patent US20150272939A1, “Identification of Small Molecule Inhibitors of Jumonji AT-Rich Interactive Domain 1A (JARID1A) and 1B (JARID1B) Histone Demethylase” (Yale University, priority 2012, published 2015).

Assays:
[1] = biological target: T1, JARID1B (Homo sapiens, UniProt Q9UGL1); assay: FLAG-JARID1B histone demethylase assay with AlphaScreen detection (HTS and dose response); format: biochemical; conditions: for inhibition at 20 µM / Inhibitory effect (percent): high-throughput screen, compound 20 μM, standard demethylase conditions (10 μM α-KG, 50 μM Fe (II)); for inhibition at 20 µM: read-out: Inhibitory effect (percent); for Validation result of HTS active: effect of the compound in the JARID1B AlphaScreen demethylase assay / Assay Signal (percent): validation of HTS actives; for Validation result of HTS active: effect of the compound in the JARID1B AlphaScreen demethylase assay: total signal before subtraction of artifact signal; for Assay − Artifact Signal (percent): assay signal minus artifact signal; for Assay Signal (percent): effect of compound in JARID1B AlphaScreen assay;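 on Assay Signal (percent): compound tested at 20 µM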;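 on Assay − Artifact Signal (percent): compound tested at 20 µM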;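 on all read-outs here: FLAG-tagged JARID1B at 4 nM acting on a biotinylated H3K4me3 peptide, demethylation read by AlphaScreen luminescence, with hits checked against bio-H3K4me2 without enzyme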
T1 construct: The FLAG tagged full length JARID1B enzyme was expressed in Sf21 insect cells using FLAG-JARID1B baculoviruses; FLAG (N); made in house; host or cells: Sf21 insect cells (baculovirus)

[2] = AlphaScreen counterscreen against bio-H3K4me2 peptide in the absence of enzyme (artifact signal); conditions: for Artifact signal: effect of the compound when it is incubated with bio-H3K4me2 peptide: counterscreen, no enzyme; for Artifact Signal (percent): effect of the compound when incubated with bio-H3K4me2 peptide (counterscreen, no enzyme);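 on all read-outs here: counterscreen run without enzyme against bio-H3K4me2 peptide to remove false positive hits from the JARID1 demethylase AlphaScreen screen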

T1 sequence (Q9UGL1 whole entry): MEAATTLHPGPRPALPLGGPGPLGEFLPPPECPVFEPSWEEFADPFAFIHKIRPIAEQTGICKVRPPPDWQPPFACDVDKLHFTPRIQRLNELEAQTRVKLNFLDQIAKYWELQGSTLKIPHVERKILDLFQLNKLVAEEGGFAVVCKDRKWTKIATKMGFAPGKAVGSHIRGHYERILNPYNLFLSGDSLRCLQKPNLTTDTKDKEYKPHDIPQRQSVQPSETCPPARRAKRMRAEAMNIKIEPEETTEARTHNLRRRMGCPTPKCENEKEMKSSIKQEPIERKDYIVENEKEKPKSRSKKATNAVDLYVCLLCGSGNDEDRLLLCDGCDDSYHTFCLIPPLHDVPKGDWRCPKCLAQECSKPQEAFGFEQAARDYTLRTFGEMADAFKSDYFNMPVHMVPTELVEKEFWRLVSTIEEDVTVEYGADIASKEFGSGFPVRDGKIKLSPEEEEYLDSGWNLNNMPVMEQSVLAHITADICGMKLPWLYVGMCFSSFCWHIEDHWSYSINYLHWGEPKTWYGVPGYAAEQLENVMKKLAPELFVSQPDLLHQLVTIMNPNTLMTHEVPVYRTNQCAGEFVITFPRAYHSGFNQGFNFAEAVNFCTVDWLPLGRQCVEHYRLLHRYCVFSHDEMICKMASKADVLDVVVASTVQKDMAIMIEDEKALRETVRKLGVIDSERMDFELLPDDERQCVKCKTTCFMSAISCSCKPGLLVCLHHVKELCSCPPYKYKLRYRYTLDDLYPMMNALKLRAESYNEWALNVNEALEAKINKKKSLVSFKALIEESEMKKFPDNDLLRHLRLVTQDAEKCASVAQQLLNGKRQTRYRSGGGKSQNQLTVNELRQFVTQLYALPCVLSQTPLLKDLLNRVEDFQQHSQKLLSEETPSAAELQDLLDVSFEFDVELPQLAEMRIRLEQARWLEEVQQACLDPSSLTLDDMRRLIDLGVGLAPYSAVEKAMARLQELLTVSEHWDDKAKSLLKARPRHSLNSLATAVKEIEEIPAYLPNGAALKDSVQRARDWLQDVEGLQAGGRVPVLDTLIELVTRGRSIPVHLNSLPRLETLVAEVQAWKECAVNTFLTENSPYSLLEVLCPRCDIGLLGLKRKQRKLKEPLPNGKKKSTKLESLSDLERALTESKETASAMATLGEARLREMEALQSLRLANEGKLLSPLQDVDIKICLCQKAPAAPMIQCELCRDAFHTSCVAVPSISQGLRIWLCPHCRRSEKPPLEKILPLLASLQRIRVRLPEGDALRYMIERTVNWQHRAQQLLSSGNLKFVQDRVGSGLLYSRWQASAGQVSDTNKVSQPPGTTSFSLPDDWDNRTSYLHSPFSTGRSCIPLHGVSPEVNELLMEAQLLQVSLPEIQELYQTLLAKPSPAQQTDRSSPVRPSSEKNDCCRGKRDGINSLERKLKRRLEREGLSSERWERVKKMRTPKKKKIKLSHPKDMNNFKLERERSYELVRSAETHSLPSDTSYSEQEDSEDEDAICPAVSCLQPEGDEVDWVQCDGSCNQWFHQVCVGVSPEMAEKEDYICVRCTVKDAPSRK

Structure (SMILES)	inhibition at 20 µM [1] [%]	Validation result of HTS active: effect of the compound in the JARID1B AlphaScreen demethylase assay [1]	Artifact signal: effect of the compound when it is incubated with bio-H3K4me2 peptide [2]	Assay − Artifact Signal (percent) [1] [%]	Assay Signal (percent) [1] [%]	Artifact Signal (percent) [2] [%]	Inhibitory effect (percent) [1] [%]
O=C(Oc1cc(O)cc2c1C[C@@H](OC(=O)c1cc(O)c(O)c(O)c1)[C@@H](c1cc(O)c(O)c(O)c1)O2)c1cc(O)c(O)c(O)c1 [YU155091, EPIGALLOCATECHIN 3,5-DIGALLATE, reference compound]	92.2	−0.05	−3.13				
O=c1c(O)c(-c2ccc(O)c(O)c2)oc2c(O)c(O)cc(O)c12 [YU155360, GOSSYPETIN, reference compound]	103			18.96	100.77	81.81	
N.N.[Cl][Pt][Cl] [YU034538, CISPLATIN, reference compound]				40.64	49.17	8.53	40.06
Cc1ccc(CNn2cnnc2S)cc1 [YU145266]	45.7			44.07	45.11	1.04	
Cc1ccc(C)n1NC(=O)c1ccc(O)cc1 [YU145520]	36.9	3.79	1.80				
Clc1cccc(N2CCN(Cc3ccc4ccccc4c3)CC2)c1 [YU105195]	38.9	8.75	5.28				
NNC(=O)c1ccncc1.Nc1ccc(C(=O)O)c(O)c1 [YU034557, PASINIAZID, reference compound]				42.63	44.38	1.76	46.37
Cc1nnc(S)n1NCc1ccc2c(c1)OCO2 [YU147191]	31.5			43.11	45.05	1.94	
O=C(O)CCCC[C@@H]1SC[C@@H]2NC(=O)N[C@@H]21 [YU034331, BIOTIN, reference compound]	104	104.67	99.61				
O=Cc1ccc(-c2ccc(S(=O)(=O)O)cc2)o1 [YU146454]	42.3			68.83	64.68	−4.14	
C=CCOc1c(Cl)cc(C=C[N+](=O)[O-])cc1OCC (single isomer, unassigned) [YU148636]	34.7			11.11	10.64	−0.47	
Oc1cc(O)c2c(c1)O[C@H](c1cc(O)c(O)c(O)c1)[C@H](O)C2 [YU155087, EPIGALLOCATECHIN, reference compound]	55.5			19.74	44.50	24.76	
N=C(NCCCCCCNC(=N)NC(=N)Nc1ccc(Cl)cc1)NC(=N)Nc1ccc(Cl)cc1 [YU033734, CHLORHEXIDINE, reference compound]	41	−1.12	1.97				
C=CC1=C(C(=O)O)N2C(=O)[C@@H](NC(=O)/C(=N\OCC(=O)O)c3csc(N)n3)[C@H]2SC1 [YU039791, CEFIXIME TRIHYDRATE, reference compound]	105	104.49	96.65				
NC(=O)c1ncn([C@@H]2O[C@H](CO)[C@@H](O)[C@H]2O)n1 [YU034518, RIBAVIRIN, reference compound]	79.7			23.17	17.20	−5.97	
Cc1ccc(-n2sc3ccccc3c2=O)cc1 [YU146026]	87.8			85.63	88.51	2.88	
N#CC(=Cc1ccc(O)c(O)c1)C(N)=S (single isomer, unassigned) [YU154834, TYRPHOSTIN 47, reference compound]	46.5			21.75	40.23	18.48	
CN(C)c1ccc(C(=C2C=CC(=[N+](C)C)C=C2)c2ccc(N(C)C)cc2)cc1 [YU033841, GENTIAN VIOLET, reference compound]	106	96.28	93.38				
NC[C@H](O)c1ccc(O)c(O)c1 [YU033927, NOREPINEPHRINE, reference compound]	58.5			37.97	39.80	1.83	

Continued, in another order:

inhibition at 20 µM [1] [%]	Validation result of HTS active: effect of the compound in the JARID1B AlphaScreen demethylase assay [1]	Artifact signal: effect of the compound when it is incubated with bio-H3K4me2 peptide [2]	Assay − Artifact Signal (percent) [1] [%]	Assay Signal (percent) [1] [%]	Artifact Signal (percent) [2] [%]	Structure (SMILES)	Inhibitory effect (percent) [1] [%]
45.1	4.03	−0.23				O=C(O)CSc1nc2cc(F)c(N3CCOCC3)cc2[nH]1 [YU151409]	
35			14.61	16.26	1.65	O=C(Cn1c(=O)oc2ccccc21)Nc1cccc([N+](=O)[O-])c1 [YU151591]	
42.3			14.24	43.01	28.76	Oc1c(C(Nc2ccc(Cl)cc2)c2cccnc2)ccc2cccnc12 (stereo not drawn) [YU172165]	
56.7	−6.24	−8.78				Cc1cc(C(=O)Nc2cccc(Cn3cccn3)c2)cs1 [YU149922]	
			36.06	40.22	4.16	Cc1noc2c1C(c1ccc(O)c(O)c1)C1=C(CCCC1=O)N2 (stereo not drawn) [YU183529]	
70.3			15.98	15.51	−0.48	Oc1ccc2c(c1)OCC1(O)Cc3cc(O)c(O)cc3C21 (stereo not drawn) [YU154998, BRAZILIN, reference compound]	
96.7			9.86	6.13	−3.73	CCOC(=O)C(CCOc1cccc(CC)c1)C(=O)OCC [YU151071]	
41.2	1.57	−2.05				CN(C)CCn1c2c(c3ccccc31)CCCn1cnnc1-2.Cl [YU153907]	
60.1	63.48	56.78				COC(=O)c1cccc(NC(c2cccnc2)c2ccc3cccnc3c2O)c1 (stereo not drawn) [YU172172]	
97.5	−1.37	−3.21				O=C(O)c1cc(O)c(=O)c2c(O)c(O)c(O)cc2c1 [YU155193, PURPUROGALLIN-4- CARBOXYLIC ACID, reference compound]	
96.8			73.02	93.44	20.42	COc1c(O)cc2c(c1O)[C@@H]1O[C@H](CO)[C@@H](O)[C@H](O)[C@H]1OC2=O [YU155621, BERGENIN, reference compound]	
52.9	14.20	8.81				CC(=O)Nc1ccc(N2CCC(C(N)=O)(N3CCCCC3)CC2)c(C(=O)O)c1 [YU208195]	
34			11.45	13.59	2.14	COC(=O)NC1(C(F)(F)F)C(=O)NC(C)=C1C(=O)OC (stereo not drawn) [YU149831]	
66			57.78	64.74	6.96	Oc1cc(O)c2c(c1)O[C@H](c1ccc(O)c(O)c1)[C@H](O)C2 [YU155618, EPICATECHIN, reference compound]	
96.7	0.53	−2.69				CN1C(=O)c2ccc(NC(=O)c3ccc4c(c3)OCO4)cc2C1=O [YU152920]	
42			9.56	11.96	2.40	N#CC(=Cc1ccc(N2CCCCC2)o1)c1ccc([N+](=O)[O-])cc1 (single isomer, unassigned) [YU152765]	
51.4			8.48	15.48	7.00	COC(=O)c1cccc(OCC(O)Cn2ccnc2)c1 (stereo not drawn) [YU148087]	
			21.62	98.21	76.59	O=c1c2cc(O)c(O)cc2oc2cc(O)c([C@@H]3O[C@H](CO)[C@@H](O)[C@H](O)[C@H]3O)c(O)c12 [YU153356, MANGIFERIN, reference compound]	
